Patent US8129371B2, “Thienopyrimidine and pyrazolopyrimidine compounds and their use as mTOR kinase and PI3 kinase inhibitors” (Wyeth LLC, priority 2007, dated 2012)
Like-named read-outs stand apart in the source and are kept apart here.

How the values were obtained:
Human mTOR (FLAG-TOR) = biological target: T1, Human mTOR (FLAG-TOR) (Homo sapiens, UniProt P42345); assay: Human mTOR kinase assay with purified enzyme, DELFIA format; type: biochemical
T1 construct: FLAG
In short: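 Purified FLAG-mTOR in HEPES pH 7.4 buffer with 10 mM MnCl2 was preincubated with inhibitor and reacted 2 h at room temperature with His6-S6K substrate, then stopped with EDTA/EGTA. Phospho-T389 S6K detected by DELFIA with Eu-labelled antibody (40 ng/mL) after plate capture; inhibition computed from signal.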

PI3K [1] = biological target: T2, PI3K (Homo sapiens, UniProt P42336); assay: Fluorescence polarization assay for PI3K; type: biochemical; details: read-out: PI3 Kinase α IC50
T2 construct: PI3 Kinase α IC50; other: PI3 Kinase α; other: PI3 Kinase α isoform, fluorescence polarization
In short: (§1)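 PI3K was preincubated with compound (final DMSO 1%), and the reaction was started with PIP2/ATP substrate and run 30–60 min. It was stopped with a detector mix giving 10 nM red probe and 70 nM GST-GRP.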

PI3K [2] = biological target: T3, PI3K (Homo sapiens, UniProt P48736); assay: Fluorescence polarization assay for PI3K; type: biochemical; details: read-out: PI3 Kinase γ IC50
T3 construct: PI3 Kinase γ IC50; other: PI3 Kinase γ; other: PI3 Kinase γ isoform, fluorescence polarization
In short: as §1

prostate line LNCap = assay: In vitro cell culture growth assay (MTS), LNCap; type: cell-based; details: Homo sapiens, LNCaP, 72 h, LNCap cells, three days after drug treatment
In short: (§2)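 Plate cells; add inhibitors on day 1; after 3 days' treatment, add MTS; read A490; express as percent growth of vehicle-treated control.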

breast line MDA468 = assay: In vitro cell culture growth assay (MTS), MDA468; type: cell-based; details: Homo sapiens, 72 h, MDA468 cells, three days after drug treatment
In short: as §2

[3] = purified human mTOR enzyme, DELFIA format
[4] = PI3 Kinase α isoform, fluorescence polarization
[5] = PI3 Kinase γ isoform, fluorescence polarization

T3 sequence (P48736 whole entry, canonical isoform): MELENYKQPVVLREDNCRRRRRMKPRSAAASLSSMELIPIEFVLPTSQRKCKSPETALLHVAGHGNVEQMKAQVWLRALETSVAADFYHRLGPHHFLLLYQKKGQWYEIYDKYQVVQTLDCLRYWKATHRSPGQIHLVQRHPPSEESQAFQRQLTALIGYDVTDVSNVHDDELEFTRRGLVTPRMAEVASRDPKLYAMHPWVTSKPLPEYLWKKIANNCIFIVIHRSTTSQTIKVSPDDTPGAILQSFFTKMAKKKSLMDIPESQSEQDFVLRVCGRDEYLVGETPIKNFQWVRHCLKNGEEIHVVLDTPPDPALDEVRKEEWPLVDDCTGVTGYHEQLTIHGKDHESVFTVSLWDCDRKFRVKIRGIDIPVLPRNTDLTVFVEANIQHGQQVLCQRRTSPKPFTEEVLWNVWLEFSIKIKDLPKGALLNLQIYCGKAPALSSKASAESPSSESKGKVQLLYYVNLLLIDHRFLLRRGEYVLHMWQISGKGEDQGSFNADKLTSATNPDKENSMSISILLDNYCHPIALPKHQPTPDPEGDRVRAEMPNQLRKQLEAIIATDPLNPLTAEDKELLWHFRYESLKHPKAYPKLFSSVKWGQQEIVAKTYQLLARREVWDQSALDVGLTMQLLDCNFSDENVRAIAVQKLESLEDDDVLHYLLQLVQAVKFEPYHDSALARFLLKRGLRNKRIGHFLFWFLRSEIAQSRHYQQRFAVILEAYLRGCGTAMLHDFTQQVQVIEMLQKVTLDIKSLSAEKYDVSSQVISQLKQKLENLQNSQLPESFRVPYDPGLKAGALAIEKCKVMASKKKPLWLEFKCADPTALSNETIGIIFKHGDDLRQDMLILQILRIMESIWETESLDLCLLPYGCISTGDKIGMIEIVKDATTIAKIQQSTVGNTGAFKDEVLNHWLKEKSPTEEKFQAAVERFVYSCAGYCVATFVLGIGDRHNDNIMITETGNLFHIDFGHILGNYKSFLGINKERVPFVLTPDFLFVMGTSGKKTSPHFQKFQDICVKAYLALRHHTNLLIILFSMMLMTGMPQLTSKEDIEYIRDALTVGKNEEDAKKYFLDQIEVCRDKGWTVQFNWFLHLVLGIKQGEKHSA
T2 sequence (P42336 whole entry, canonical isoform): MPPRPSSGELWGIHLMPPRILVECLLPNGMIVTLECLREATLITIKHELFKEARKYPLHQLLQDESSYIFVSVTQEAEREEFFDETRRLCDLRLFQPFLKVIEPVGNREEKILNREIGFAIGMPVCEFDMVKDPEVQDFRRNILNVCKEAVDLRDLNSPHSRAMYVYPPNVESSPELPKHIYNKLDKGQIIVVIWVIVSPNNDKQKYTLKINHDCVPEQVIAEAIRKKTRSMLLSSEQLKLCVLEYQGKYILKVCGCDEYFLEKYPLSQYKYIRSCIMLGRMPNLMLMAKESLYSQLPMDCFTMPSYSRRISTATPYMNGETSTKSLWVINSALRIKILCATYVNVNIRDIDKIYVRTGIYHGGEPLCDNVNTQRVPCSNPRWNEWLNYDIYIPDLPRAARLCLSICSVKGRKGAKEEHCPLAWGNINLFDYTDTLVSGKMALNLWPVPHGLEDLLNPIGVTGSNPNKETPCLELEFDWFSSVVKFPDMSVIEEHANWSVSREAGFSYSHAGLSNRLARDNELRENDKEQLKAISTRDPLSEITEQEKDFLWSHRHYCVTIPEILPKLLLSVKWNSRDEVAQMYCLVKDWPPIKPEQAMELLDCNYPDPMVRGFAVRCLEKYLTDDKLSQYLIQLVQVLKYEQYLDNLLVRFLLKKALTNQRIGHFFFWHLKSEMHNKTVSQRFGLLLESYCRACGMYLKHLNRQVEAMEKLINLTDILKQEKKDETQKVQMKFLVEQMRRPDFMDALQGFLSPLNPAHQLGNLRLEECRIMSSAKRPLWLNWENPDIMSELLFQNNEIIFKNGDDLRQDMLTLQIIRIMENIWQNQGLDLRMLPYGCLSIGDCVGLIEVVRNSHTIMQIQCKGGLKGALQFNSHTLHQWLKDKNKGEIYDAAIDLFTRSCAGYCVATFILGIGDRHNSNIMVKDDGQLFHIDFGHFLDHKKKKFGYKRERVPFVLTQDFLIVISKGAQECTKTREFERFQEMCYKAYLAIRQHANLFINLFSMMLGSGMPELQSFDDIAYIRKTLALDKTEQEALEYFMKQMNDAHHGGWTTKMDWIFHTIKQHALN

Row | SMILES | IC50 (Human mTOR (FLAG-TOR); [3]) | IC50 (PI3K [1]; [4]) | IC50 (PI3K [2]; [5]) | IC50 (prostate line LNCap) | IC50 (breast line MDA468) | IC50 (Human mTOR (FLAG-TOR)) | IC50 (PI3K [1]; PI3 Kinase α) | IC50 (PI3K [2]; PI3 Kinase γ)
1 | O=CN1CC2CN(c3nc(-c4ccc(NC(=O)Nc5ccncc5)cc4)nc4c3cnn4CC(F)(F)F)CC(C1)O2 [Example 338, 1-{4-[4-(7-formyl-9-oxa-3,7-diazabicyclo[3.3.1]non-3-yl)-1-(2,2,2-trifluoroethyl)-1H-pyrazolo[3,4-d]pyrimidin-6-yl]phenyl}-3-pyridin-4-ylurea] | 787 nM | 9500 nM | > 10000 nM | 2950 nM | 1870 nM | – | – | –
2 | CCOC(=O)N1CCC(n2ncc3c(N4CC5CCC(C4)O5)nc(-c4ccc(NC(=O)NCCF)cc4)nc32)CC1 [Example 32, ethyl 4-[6-(4-{[(2-fluoroethyl)carbamoyl]amino}phenyl)-4-(8-oxa-3-azabicyclo[3.2.1]oct-3-yl)-1H-pyrazolo[3,4-d]pyrimidin-1-yl]piperidine-1-carboxylate] | – | – | – | 9 nM | 210 nM | 0.33 nM | 3320 nM | 9500 nM
3 | O=C(Nc1ccc(-c2nc(N3C4CCC3COC4)c3cnn(CC(F)(F)F)c3n2)cc1)Nc1ccc(N2CCNCC2)cc1 [Example 318, 1-{4-[4-(3-oxa-8-azabicyclo[3.2.1]oct-8-yl)-1-(2,2,2-trifluoroethyl)-1H-pyrazolo[3,4-d]pyrimidin-6-yl]phenyl}-3-(4-piperazin-1-ylphenyl)urea] | 0.19 nM | 173 nM | 2270 nM | < 1 nM | 1 nM | – | – | –
4 | CCOC(=O)N1CCC(n2ncc3c(N4CC5CCC(C4)O5)nc(-c4ccc(NC(=O)Nc5cccnc5)cc4)nc32)CC1 [Example 34, ethyl 4-[4-(8-oxa-3-azabicyclo[3.2.1]oct-3-yl)-6-{4-[(pyridin-3-ylcarbamoyl)amino]phenyl}-1H-pyrazolo[3,4-d]pyrimidin-1-yl]piperidine-1-carboxylate] | – | – | – | < 0.8 nM | 25 nM | 0.12 nM | 314 nM | 2610 nM
5 | CN1CCN(CCNC(=O)Nc2ccc(-c3nc(N4CC5CCC(C4)O5)c4cnn(C5CCC6(CC5)OCCO6)c4n3)cc2)CC1 [Example 134, 1-{4-[1-(1,4-dioxaspiro[4.5]dec-8-yl)-4-(8-oxa-3-azabicyclo[3.2.1]oct-3-yl)-1H-pyrazolo[3,4-d]pyrimidin-6-yl]phenyl}-3-[2-(4-methylpiperazin-1-yl)ethyl]urea] | – | – | – | 390 nM | 4000 nM | 17.5 nM | 2440 nM | > 10000 nM
6 | CNC(=O)Nc1ccc(-c2nc(N3C[C@@H]4C[C@H]3CO4)c3cnn(CC(F)(F)F)c3n2)cc1 [Example 292, 1-methyl-3-(4-{4-[(1S,4S)-2-oxa-5-azabicyclo[2.2.1]hept-5-yl]-1-(2,2,2-trifluoroethyl)-1H-pyrazolo[3,4-d]pyrimidin-6-yl}phenyl)urea] | – | – | – | 80 nM | 300 nM | 5.5 nM | 2090 nM | > 10000 nM
7 | Cn1ncc2c(N3CC4CCC(C3)O4)nc(-c3ccc(NC(=O)NCCF)cc3)nc21 [Example 52, 1-(2-fluoroethyl)-3-{4-[1-methyl-4-(8-oxa-3-azabicyclo[3.2.1]oct-3-yl)-1H-pyrazolo[3,4-d]pyrimidin-6-yl]phenyl}urea] | – | – | – | 100 nM | 500 nM | 1 nM | 877 nM | 9500 nM
8 | CCNC(=O)Nc1ccc(-c2nc(N3CC4CCC(C3)O4)c3cnn(C(C)(C)C)c3n2)cc1 [Example 94] | – | – | – | 50 nM | 490 nM | 0.51 nM | 804 nM | > 10000 nM
9 | CC(C)(C)n1ncc2c(N3CC4CCC(C3)O4)nc(-c3ccc(NC(=O)Nc4ccncc4)cc3)nc21 [Example 101] | – | – | – | 19 nM | 110 nM | 0.53 nM | 178 nM | 727 nM
10 | O=C(Nc1ccc(CO)cc1)Nc1ccc(-c2nc(N3C[C@@H]4C[C@H]3CO4)c3cnn(CC(F)(F)F)c3n2)cc1 [Example 294, 1-[4-(hydroxymethyl)phenyl]-3-(4-{4-[(1S,4S)-2-oxa-5-azabicyclo[2.2.1]hept-5-yl]-1-(2,2,2-trifluoroethyl)-1H-pyrazolo[3,4-d]pyrimidin-6-yl}phenyl)urea] | – | – | – | < 1 nM | 1 nM | 0.775 nM | 220 nM | 3020 nM
11 | O=C(Nc1ccc(-c2nc(N3C4CCC3COC4)c3cnn(CC(F)(F)F)c3n2)cc1)Nc1ccc(N2CCOCC2)cc1 [Example 273, 1-(4-morpholin-4-ylphenyl)-3-{4-[4-(3-oxa-8-azabicyclo[3.2.1]oct-8-yl)-1-(2,2,2-trifluoroethyl)-1H-pyrazolo[3,4-d]pyrimidin-6-yl]phenyl}urea] | – | – | – | 1 nM | 10 nM | 0.24 nM | 618 nM | > 10000 nM
